The values below come from patent US10759796B2, “CXCR4 inhibitors and uses thereof” (X4 Pharmaceuticals, Inc., priority 2016, dated 2020).

Series [1] in a line: MTD and pharmacokinetics and brain penetration after PO administration. Type of series: in vivo, Male C57BL/6 Mice. To be noted: male; for Kp / Kp uu: Mouse; for AUC(0-t): C57BL/6. The protocol:
Example 30: MTD and Pharmacokinetics and Brain Penetration Experiment to Determine Brain and Plasma Concentration of Compounds after PO Administration to Male C57BL/6 Mice
The study was designed with 2 groups (18 animals and 24 animals) consists of administrating the drug [PO-50, 100, 150, 225, 300 mg/kg via oral gavage] and collecting samples at terminal bleeding for plasma, brain and CSF at 0.25, 0.5, 1, 4, 8, and 24 hr. All PO dosing solutions were prepared in 50 mM citrate buffer (pH 4.0).
The blood collection was performed as follows: the animal was restrained manually at the designated time points, approximately 500 μL of blood sample was collected via cardiac puncture vein into EDTA-2K tubes. The whole blood needed to be divided into two parts; one part was placed in the tube containing EDTA-2K for plasma generation and the other was used for the hematology assay, respectively. The blood samples for plasma generation were maintained in wet ice first and centrifuged to obtain plasma (2000 g, 4° C., 5 min) within 15 minutes post sampling. The brain collection was performed as follows: a mid-line incision was made in the animal's scalp and the skin was retracted. Using small bone cutters and rongeurs, the skull overlying the brain was removed. The brain was removed using a spatula and rinsed with cold saline. The brain was placed in screw-top tubes, and then stored at −70° C. until analysis. The CSF collection was performed as follows: a mid line incision was made on the neck. The muscle under the skin was cut to expose the cisterna magna. The cisterna magna was penetrated with the sharp end of one capillary (Burn one end of capillary to make it sharp). The CSF was sucked spontaneously into the capillary.
Plasma Sample Preparation:
An aliquot of 30 μL sample was added with 100 μL MeCN containing 100 ng/mL IS (Dexamethasone). The mixture was vortexed for 10 min and centrifuged at 5800 rpm for 10 min. An aliquot of 40 μL supernatant was added to 40 μL H2O and the mixture was vortexed for 5 min. An aliquot of 2 μL supernatant was injected for LC-MS/MS analysis.
Brain Sample Preparation:
An aliquot of 30 μL brain homogenate (brain:PBS=1:3, w/v) sample was added to 100 μL MeCN containing 100 ng/mL IS (Dexamethasone). The mixture was vortexed for 10 min and centrifuged at 5800 rpm for 10 min. An aliquot of 40 μL supernatant was added to 40 μL H2O and the mixture was vortexed for 5 min. An aliquot of 2 μL supernatant was injected for LC-MS/MS analysis.
An aliquot of 3 μL sample was added to a mixture of 6 CSF, 9 μL MeOH/H2O (1/1), 40 μL MeCN containing 200 ng/mL IS (Dexamethasone), and 116 μL H2O. The mixture was vortexed for 5 min. An aliquot of 4 μL was injected for LC-MS/MS analysis.
The sample analysis was performed on UPLC-MS/MS-02 (Triple Quad 4000) under the following conditions: positive ion, ESI, MRM detection using dexamethasone as internal standard. HPLC conditions: mobile phase A: H2O-0.1% formic acid, mobile phase B: MeCN-0.1% formic acid on: ACQUITY UPLC HSS T3 (2.1×50 mm, 1.8 μm) at 60° C.

A further series deals with brain proteins. Put plainly: Fraction of drug unbound to brain proteins, mouse. Type of series: in vitro ADME.
The nature of series [2]: Mouse brain uptake assay, 0-24 h, 4 time points. The series is classed as in vivo. To be noted: male, 3 mg/kg IV, 4 time points; for Kp / Kp uu: CD1, brain and plasma; for Kp / clearance / half-life / Kp uu: Mouse; for clearance / half-life: CD1, plasma; for half-life: read-out: t½ (converted). The method, then:
The study design (9 animals) consisted of administrating the drug (IV: 3 mg/kg (5 mL/kg) via tail vein injection) and collecting samples at terminal bleeding for plasma and brain at 0.083, 0.5 and 1 h. The blood collection was performed as follows: the animal was restrained manually and approximately 150 μL blood/time point was collected into a dipotassium EDTA tube via retro orbital puncture under anesthesia with isoflurane. The blood sample was put on ice and centrifuged to obtain a plasma sample (2000 g, 5 min under 4° C.) within 15 minutes. The brain collection was performed as follows: a mid-line incision was made in the animal's scalp and the skin was retracted. Using small bone cutters and rongeurs, the skull overlying the brain was removed. The brain was removed using a spatula and the brain rinsed with cold saline. The brain was placed in screw-top tubes, and the tubes were stored at −70° C. until analysis. The IV dosing solution was prepared in 50 mM citrate buffer (pH 4.0) at 0.6 mg/mL.
An aliquot of 30 μL sample was added to 150 μL MeCN containing 50 ng/mL IS (Dexamethasone). The mixture was vortexed for 5 min and centrifuged at 14,000 rpm for 5 min. An aliquot of 5 μL supernatant was injected for LC-MS/MS analysis.
An aliquot of 30 μL brain homogenate (brain:PBS=1:3, w/v) sample was added to 150 μL IS in ACN (Dexamethasone, 50 ng/mL). The mixture was vortexed for 5 min and centrifuged at 14,000 rpm for 5 min. An aliquot of 5 μL supernatant was injected for LC-MS/MS analysis.
The sample analysis was performed on LCMS/MS-003 (API4000, triple quadruple) under the following conditions: positive ion, ESI, MRM detection using dexamethasone as internal standard. HPLC conditions: mobile phase A: H2O (0.025% formic acid (FA) with 1 mM NH4OAc); mobile phase B: MeOH (0.025% FA with 1 mM NH4OAc) on Waters X-Bridge C18 (2.1×50 mm, 2.5 μm) column at 60° C.
A similar experiment was performed with 4 time points taken from 0-24 h.

Another series deals with plasma proteins. Put plainly: Fraction of drug unbound to plasma proteins, mouse. The series is classed as in vitro ADME. To be noted: Mouse plasma proteins (Table 10).
Where [3] appears, read: C57BL/6, brain and plasma, single administration, D1-50 mg/kg PO.
[4] abbreviates: C57BL/6, brain, multiple administration, D5-300 mg/kg PO.
The mark [5] stands for this setting: CD1, Mouse brain, read-out: AUClast (b).
Setting [6] is: CD1, Mouse plasma, read-out: AUClast (p).

Take `CN1CCN(c2cccc3nc([C@H]4CCC[C@@H](c5ncccc5Cl)N4)cn23)CC1` (single isomer, unassigned) [Compound I-188]: the results for the Kp in series [1] (setting [3]) and in series [1] (setting [4]) were 2.49 and 5.61, respectively. The results for the Kp uu in series [1] (setting [3]) and in series [1] (setting [4]) were 0.94 and 2.12, respectively. In addition, the AUC(0-t) was 430000 ng·h/mL in series [1] (Mouse brain, multiple administration, D5-300 mg/kg PO, read-out: AUClast (b)); 58600 ng·h/mL in series [1] (Mouse brain, single administration, D1-50 mg/kg PO, read-out: AUClast (b)); 76600 ng·h/mL in series [1] (Mouse plasma, multiple administration, D5-300 mg/kg PO, read-out: AUClast (p)); 23500 ng·h/mL in series [1] (Mouse plasma, single administration, D1-50 mg/kg PO, read-out: AUClast (p)). Also, in the series on brain proteins (Mouse brain proteins (Table 13)), the “Fu (b)” value stood at 5.4%.
Take `Cc1cccnc1[C@@H]1CCC[C@H](c2cn3c(-c4cccnc4)cccc3n2)N1C` [Compound I-6]: in series [2] (setting [5]), the AUC(0-t) came to 3170 ng·h/mL. The AUC(0-t) in series [2] (setting [6]) stood at 1040 ng·h/mL. Further, in series [2], the Kp is 3.05, the clearance was 48.3 mL/min/kg and the half-life was 3.6 h.
With `Cc1cccnc1[C@@H]1CCC[C@H](c2nc3cccc(N4CCN(C)CC4)n3c2Cl)N1` [Compound I-146], the AUC(0-t) in series [2] (setting [5]) is 34800 ng·h/mL. In series [2] (setting [6]), the AUC(0-t) was 6590 ng·h/mL. In series [2], the Kp was found to be 5.29, the Kp uu was found to be 0.6, the clearance was 7.22 mL/min/kg and the half-life is 6.02 h. Besides, the “Fu (p) %” value with plasma proteins was 5.3%.
For the compound `Cc1cccnc1[C@@H]1CCC[C@H](c2cn3c(N4CCN(C)CC4)cccc3n2)N1` [Compound I-187], the AUC(0-t) in series [2] (setting [5]) worked out at 1360 ng·h/mL. The AUC(0-t) in series [2] (setting [6]) worked out at 1720 ng·h/mL. Moreover, in series [2], the Kp came to 0.79, the Kp uu turned out to be 0.22, the clearance is 28.7 mL/min/kg and the half-life is 4.72 h. Also, the “Fu (p) %” value with plasma proteins is given as 24.9%. Further, in the series on brain proteins (Mouse brain proteins (Table 10)), the “Fu (b) %” value was 7.1%.

By clearance is commonly meant the volume of plasma or blood freed of the substance per unit of time. A lower clearance goes with a low capacity for elimination.
